In brackets after ≈: the same amount, converted by molar mass.
What was measured:
[1] = tested on: Salmonella enterica subsp. enterica; experiment: Antibacterial activity against blaCMY-expressing Salmonella enterica subsp. enterica serovar Newport isolated from food animals; type: functional
[2] = tested on: Salmonella enterica subsp. enterica; experiment: Antibacterial activity against susceptible Salmonella enterica subsp. enterica serovar Newport isolated from food animals; type: functional, organism-based
[3] = tested on: Salmonella enterica subsp. enterica; experiment: Antibacterial activity against aacC-expressing Salmonella enterica subsp. enterica serovar Newport isolated from food animals; type: functional, organism-based

## CO/N=C(\C(=O)N[C@@H]1C(=O)N2C(C(=O)O)=C(CSc3nc(=O)c(O)nn3C)CS[C@H]12)c1csc(N)n1 [CEFTRIAXONE]
[1]
  MIC: 16 µg/mL (≈ 28.9 µM)

## GENTAMICIN
[2]
  MIC: < 0.25 µg/mL
[3]
  MIC: 1 µg/mL
